From publication PMC12668310, “High‐Throughput Synthesis and Screening of a Cyanimide Library Identifies Selective Inhibitors of ISG15‐Specific Protease mUSP18” (Angewandte Chemie (International Ed. in English), 2025)

The molecules below were run against T1, OTUD1 (Homo sapiens, UniProt Q5VV17) (assay: High-throughput screening, Ub-RhoMP, single dose 1.25 µM). Conditions: crude in-plate synthesized compound, 1.25 µM assuming full conversion.
T1 sequence (Q5VV17 287-481): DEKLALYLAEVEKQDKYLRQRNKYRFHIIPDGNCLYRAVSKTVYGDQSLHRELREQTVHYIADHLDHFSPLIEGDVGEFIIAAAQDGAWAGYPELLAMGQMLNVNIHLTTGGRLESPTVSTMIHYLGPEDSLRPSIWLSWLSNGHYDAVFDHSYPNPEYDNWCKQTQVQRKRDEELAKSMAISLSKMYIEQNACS
Assay type: biochemical
Experimental: (§1) Since the in‐plate synthesis was conducted in 1536‐well Echo plates, the compounds could readily be transferred from these plates into 1536‐well assay plates using acoustic liquid dispensing (Figure 2a) and subjected to HTS. We screened the whole 7536 compound library against a panel of twelve enzymes, including three DUBs from the UCH family, two DUBs from the OTU family, five DUBs from the USP family, plus ISG15 protease USP18, and SUMO protease SENP1. Each compound was tested at a single dose of 1.25 µM, assuming full conversion (10 mM in DMSO of the formed products) during the in‐plate synthesis, using the fluorogenic assay described above. […] The compounds are sorted by the amine building blocks (BB1‐16), and within each BB, sorted by carboxylic acid (CA1‐471), thereby providing a comprehensive and systematic overview of the overall inhibition by each BB and CA combination. Some interesting patterns can be obtained from this map. […] Indeed, BB10 is the privileged scaffold for UCHL1 as it originates from UCHL1 inhibitor 5 (Figure 1). […] On the other hand, OTUD1 and USP32 show a much higher hit rate, and this is even more pronounced for USP30 and ISG15 protease mUSP18, each showing many active compounds distributed over several BB's.
(§2) Purified recombinant enzymes used in this study
(§3) High-throughput screening
(§4) The screens were performed at room temperature in “flat bottom, non-treated, black […]
(§5) µM. The compounds (10 nL each) were transferred from the 1 mM daughter plates to the […]
(§6) Four wells containing DMSO
(§7) (10 nL) and four wells containing NEM (10 mM final concentration) were used in each plate […]
(§8) solution (1.33x final concentration) was added to each well, followed by incubation for 30 min.
(§9) Next, 2 µL of a substrate solution (4x final concentration) was added to each well (Ub-RhoMP[2]
(§10) After 1h or 2h incubation the
(§11) The percentage inhibition was calculated for each well using the […]
(§12) Where FIx is the fluorescence intensity of each well, FIpos is the average fluorescence intensity of the positive (NEM) control wells, and FIneg is the average fluorescence intensity of the negative (DMSO) control wells.

Going from N#CN1CC[C@@H](NC(=O)c2nc(N3CCCC3)ncc2Cl)C1 [BB01CA90] to N#CN1CC[C@@H](NC(=O)c2ncoc2-c2cccs2)C1 [BB01CA94], the “%inhibition OTUD1” value falls from 7.7% to -11.1%.

First: N#CN1CC[C@@H](NC(=O)C(Cc2c[nH]cn2)NS(=O)(=O)c2ccc(Cl)cc2)C1 (stereo partly drawn) [BB01CA91]
Second: N#CN1CC[C@@H](NC(=O)CCN(Cc2ccccc2)S(=O)(=O)c2c(Cl)cccc2Cl)C1 [BB01CA93]
The “%inhibition OTUD1” value of the first is lower: -3.9% for the first, 1.5% for the second.

With N#CN1CC[C@@H](NC(=O)Cc2csc(-c3cnccn3)n2)C1 [BB01CA92] the “%inhibition OTUD1” value was -13.5%.

The molecules below were run against T2, OTUB2 (Homo sapiens, UniProt Q96DC9) in the same assay as above. Conditions: individual amine building block (plate NCN-5); read-out: BB %inhibition OTUB2.
T2 sequence (Q96DC9 1-234): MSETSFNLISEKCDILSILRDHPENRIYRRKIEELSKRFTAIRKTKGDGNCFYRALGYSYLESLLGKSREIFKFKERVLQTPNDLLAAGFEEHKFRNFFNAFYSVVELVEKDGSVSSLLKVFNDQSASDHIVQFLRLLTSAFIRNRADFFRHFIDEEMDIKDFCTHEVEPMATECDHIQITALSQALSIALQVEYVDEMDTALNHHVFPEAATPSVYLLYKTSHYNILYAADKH
Assay type: biochemical
Parameters: (1-234); His6 (cleaved yes); made in house
Experimental: as §1, §2, §3, §4, §5, §6, §7, §8, §9, §10, §11, §12

Going from N#CN1CC[C@@H](N)C1 [BB1] to N#CN1CC[C@H](N)C1 [BB3], the inhibition at 1.25 µM falls from 3.3% to 0.556%.

First: N#CN1CCC(N)CC1 [BB2]
Second: N#CN1CCC[C@@H](N)C1 [BB4]
The inhibition at 1.25 µM of the first is lower: 0.9% for the first, 2.7% for the second.

Compared with N#CN1CC(N)C1 [BB5], N#CN1C[C@H](N)[C@@H](O)C1 [BB13] is higher in inhibition at 1.25 µM: -1.4% for the first, 5.6% for the second.

First: N#CN1C[C@H]2C[C@@H](N)C[C@H]2C1 [BB6]
Second: N#CN1C[C@H]2C[C@H](N)C[C@H]2C1 [BB7]
The inhibition at 1.25 µM of the first is higher: -1.5% for the first, -3.8% for the second.

Going from N#CN1CCC[C@H](N)C1 [BB8] to N#CN1CC[C@H](CN)C1 [BB11], the inhibition at 1.25 µM falls from -1.3% to -6.8%.

First: N#CN1CC[C@@H](NC(=O)c2ccc(CN)cc2)C1 [BB9]
Second: N#CN1CCC(n2cc(N)cn2)CC1 [BB16]
The inhibition at 1.25 µM of the first is lower: -2% for the first, 0.0345% for the second.

Compared with N#CN1CC[C@H](C(=O)Nc2nc3c(s2)CNCC3)C1 [BB10], N#CN1CCC2(CCNC2)C1 (stereo not drawn) [BB14] is higher in inhibition at 1.25 µM: -5.1% for the first, 6.4% for the second.

First: N#CN1C[C@@H]2C[C@H]1CN2 [BB12]
Second: N#CN1C[C@@H](F)[C@@H](N)C1 [BB15]
The inhibition at 1.25 µM of the first is lower: -6% for the first, -0.269% for the second.
